Experiments:
[1] = Stability in stomach: hydrolysis rate at pH 2.0, 37° C.; assay type: physicochemical; conditions: 1% solution, 10 mM hydrochloric acid (pH 2.0)
Experimental: The stability of a substance in the gastric passage can be simulated by determining the hydrolysis rate at pH 2.0. Sucrose and 1-kestose are used as controls. […] Samples are taken from the reaction batch after […], 120 and 180 min and are analyzed by basic anion exchange chromatography, HPAEC.

[2] = molecular target: T1, saccharase/isomaltase enzyme complex (SI complex) (Sus scrofa, UniProt P56729); assay: Stability with respect to intestinal α-glucosidases: saccharase/isomaltase; assay type: in vitro ADME, pig; conditions: 1% solution, pH 7.0, 0.7 U enzyme complex, 37° C., incubation time 120 min
T1 construct: are isolated from a pig intestine by the method of H. Heymann; from tissue; host or cells: pig intestine (mucosa of the small intestine)
T1 sequence (P56729 with tags, fused parts or gaps): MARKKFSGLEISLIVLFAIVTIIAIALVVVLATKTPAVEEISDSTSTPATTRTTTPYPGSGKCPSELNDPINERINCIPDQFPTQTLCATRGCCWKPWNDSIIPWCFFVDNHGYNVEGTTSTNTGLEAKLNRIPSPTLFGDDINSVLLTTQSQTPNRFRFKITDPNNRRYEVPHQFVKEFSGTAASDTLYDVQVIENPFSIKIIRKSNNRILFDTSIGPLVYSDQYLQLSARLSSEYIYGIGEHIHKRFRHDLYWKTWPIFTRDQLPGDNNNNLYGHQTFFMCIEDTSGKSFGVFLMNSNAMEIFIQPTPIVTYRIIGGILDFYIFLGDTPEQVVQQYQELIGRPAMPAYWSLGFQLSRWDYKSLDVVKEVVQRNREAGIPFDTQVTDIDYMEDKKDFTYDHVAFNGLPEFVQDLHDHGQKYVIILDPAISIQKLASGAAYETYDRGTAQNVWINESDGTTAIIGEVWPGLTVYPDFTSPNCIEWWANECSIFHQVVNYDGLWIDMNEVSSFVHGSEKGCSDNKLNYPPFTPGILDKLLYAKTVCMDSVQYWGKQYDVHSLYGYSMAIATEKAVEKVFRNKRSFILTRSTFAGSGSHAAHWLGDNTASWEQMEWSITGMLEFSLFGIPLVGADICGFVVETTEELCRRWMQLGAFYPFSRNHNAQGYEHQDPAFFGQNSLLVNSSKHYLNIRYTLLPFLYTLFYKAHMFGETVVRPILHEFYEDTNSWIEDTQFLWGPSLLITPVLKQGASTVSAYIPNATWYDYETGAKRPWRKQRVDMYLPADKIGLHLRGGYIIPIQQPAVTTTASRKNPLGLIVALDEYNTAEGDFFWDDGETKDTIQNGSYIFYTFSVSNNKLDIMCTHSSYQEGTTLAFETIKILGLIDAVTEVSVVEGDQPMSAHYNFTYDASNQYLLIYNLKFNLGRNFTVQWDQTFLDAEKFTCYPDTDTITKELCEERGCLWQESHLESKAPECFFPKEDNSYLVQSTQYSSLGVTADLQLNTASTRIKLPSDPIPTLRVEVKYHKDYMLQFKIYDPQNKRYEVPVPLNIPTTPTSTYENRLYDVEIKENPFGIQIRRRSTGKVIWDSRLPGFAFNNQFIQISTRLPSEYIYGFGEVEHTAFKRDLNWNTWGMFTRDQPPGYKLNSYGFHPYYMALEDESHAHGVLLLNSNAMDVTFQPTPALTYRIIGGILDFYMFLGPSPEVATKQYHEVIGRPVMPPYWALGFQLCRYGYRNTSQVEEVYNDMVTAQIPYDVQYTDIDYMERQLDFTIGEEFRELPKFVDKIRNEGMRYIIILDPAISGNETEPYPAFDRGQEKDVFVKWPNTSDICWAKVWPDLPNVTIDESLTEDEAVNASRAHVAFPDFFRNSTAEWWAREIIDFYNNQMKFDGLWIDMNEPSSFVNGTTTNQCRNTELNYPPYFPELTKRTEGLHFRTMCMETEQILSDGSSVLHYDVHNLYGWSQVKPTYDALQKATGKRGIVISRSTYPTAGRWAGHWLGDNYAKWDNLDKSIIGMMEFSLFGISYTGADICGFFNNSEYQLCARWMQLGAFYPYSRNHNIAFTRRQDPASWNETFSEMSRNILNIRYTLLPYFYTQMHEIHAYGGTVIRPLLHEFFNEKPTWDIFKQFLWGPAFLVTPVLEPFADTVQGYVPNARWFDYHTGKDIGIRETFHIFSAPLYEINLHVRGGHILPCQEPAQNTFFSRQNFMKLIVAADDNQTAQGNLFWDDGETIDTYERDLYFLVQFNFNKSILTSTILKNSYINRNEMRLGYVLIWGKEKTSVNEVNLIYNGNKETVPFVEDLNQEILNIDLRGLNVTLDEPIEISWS
Text: (§1) The enzyme complexes saccharase/isomaltase and glucoamylase/maltase that are present on the mucosa in the small intestine in vivo serve to break down disaccharides like maltose and sucrose that reach the small intestine and also to break down maltooligosaccharides to monosaccharides to some degree, and as such these components are absorbed into the blood circulation via the intestinal wall. The enzyme complexes saccharase/isomaltase (SI complex) and glucoamylase/maltase (GM complex) are isolated from a pig intestine by the method of H. […] (solution 2 to solution 6), mixed and incubated at 37° C. The reaction is stopped after 2 h by heating to 95° C. for 15 min. The monosaccharides that have formed and the undegraded saccharides in the relative batches are quantitatively determined by HPAEC.

[3] = tested on: glucoamylase/maltase enzyme complex (GM complex); assay: Stability with respect to intestinal α-glucosidases: glucoamylase/maltase; assay type: in vitro ADME, pig; conditions: 1% solution, pH 7.0, 0.7 U enzyme complex, 37° C., incubation time 120 min
Text: as §1

| SMILES | Hydrolysis rate (%) ([1]; incubation time 0 min) | Hydrolysis rate (%) ([1]; incubation time 60 min) | Hydrolysis rate (%) ([1]; incubation time 120 min) | Hydrolysis rate (%) ([1]; incubation time 180 min) | Hydrolysis rate (%), incubation with Saccharase/Isomaltase [2] | Hydrolysis rate (%), incubation with Glucoamylase/Maltase [3] |
| --- | --- | --- | --- | --- | --- | --- |
| OC[C@H]1O[C@@](CO)(OC[C@@]2(O[C@H]3O[C@H](CO)[C@@H](O)[C@H](O)[C@H]3O)O[C@H](CO)[C@@H](O)[C@@H]2O)[C@@H](O)[C@@H]1O [Example 1-Kestose, 1-Kestose] | 0% | 11% | 25% | 36% |  |  |
| OC[C@H]1O[C@@](CO)(O[C@H]2O[C@H](CO)[C@@H](O)[C@H](O)[C@H]2O)[C@@H](O)[C@@H]1O [Sucrose] | 0% | 2% | 5% | 8% | 98% |  |
| OC[C@H]1O[C@H](O[C@H]2[C@H](O)[C@@H](O)C(O)O[C@@H]2CO)[C@H](O)[C@@H](O)[C@@H]1O (mixture of isomers) [Maltose] |  |  |  |  | 95% | 96% |
